Data reported in patent publication US20220096650A1 (Glaxosmithkline Intellectual Property Development Limited, priority 2019, published 2022).

Key:
NCI-H929 = assay: Immunogenic cell death markers (ATP, HMGB1, CRT) after 48 hour treatment; type: cell-based, human
Text: The process of immunogenic cell death can induce the production of danger molecules that lead to the activation of dendritic cells (see FIG. 1A—ICD is a special type of apoptosis often associated with the cellular release of ATP and HMGB1, and exposure of CRT at the cellular membrane. ICD induces an immune response through engagement of the antigen presentation process by dendritic cells (DCs)). […] Anti-BCMA-MMAF induced ATP release, HMGB1 release and CRT exposure only in NCI-H929, a BCMA positive MM cell line). To investigate the effect of NCI-H929 cell killing by BCMA ADC on the activation of dendritic cells, co-culture experiments were carried out with BCMA ADC treated NCI-H929 cells and immature dendritic cells (iDCs) differentiated from human monocytes in vitro with GM-CSF/IL-4 treatment. A number of dendritic cell maturation markers as well as IL-10 and IL-12p70, two major cytokines secreted by dendritic cells upon activation, were monitored in this process to assess the effect of BCMA ADC induced cell death on dendritic cell activation.

multiple myeloma = assay: Phase 1 clinical trial in relapsed and refractory multiple myeloma patients; type: in vivo, human
Text: Multiple myeloma (MM) is a disease that affects plasma cells and leads to devastating clinical features. MM is the second most common hematological malignancy and remains an incurable disease. Therefore, novel targeted therapies are in need.

CD4+ and CD8+ T cells = assay: T cell proliferation upon anti-CD3/anti-CD28 stimulation (CFSE); type: cell-based, human; conditions: 96 hours; 3 donors
Description: Fresh normal peripheral blood isolated CD4+ or CD8+ T cells were received and counted using a Beckman Coulter ViCell then centrifuged at 330 g for 7 minutes. Cells were then stained with Molecular Probes Cell Trace CFSE (cat #C34554) proliferation dye (5-10 μM) in PBS/0.5% BSA. Cells were incubated for 5 minutes on ice prior to a further incubation for 5 minutes on ice in cold RPMI 1640/10% FBS. Any free dye was removed by two further cell centrifugations at 300 g for 5 minutes. Cells were resuspended in complete media RPMI 1640/10% FBS/IL-2 (2.8 ng/mL). Cells were then seeded (10^5 cells/100 μL volume/well) in a 96 well tissue culture plates pre-coated with anti-CD3 (1 μg/mL) and anti-CD28 (1 μg/mL). […] After the 4 day incubation, cell supernatant was harvested and frozen at minus 80° C. and the cells were collected for flow cytometry staining. Analyzed using a CANTO II flow cytometer with 488 nm excitation and emission filters appropriate for fluorescein (FITC) for Cell Trace CFSE. FIG. 4D) Effect of BCMA ADC on proliferation of CD4+ and CD8+ T cells. CD4+ and CD8+ T cells stimulated with anti-CD3 and anti-CD28 antibodies in the presence or absence of various concentrations of BCMA ADC. After 96 hours cell proliferation was analyzed by flow cytometry. Data represent mean±SD from 3 different donors.

[1] = system: NCI-H929 Multiple Myeloma cells; assay: IL-10 in supernatants of NCI-H929 cells cultured alone; type: cell-based, human; conditions: 48 hours, 0.1, 1, 10 μg/mL
Description: Fresh, whole Human blood was obtained from three healthy donors from the Upper Providence Blood Donation Unit with syringes coated in liquid sodium heparin (Sagent 10 IU/mL final concentration). Monocytes were isolated from fresh, whole human blood using the RosetteSep Monocyte Enrichment kit (Cat. #15068) and were assessed for expression of cell surface CD14 (BD Bioscience Cat. #562698) using flow cytometry. Isolated Monocytes (1.5×10^6 cells/well) were cultured in 2 mLs of X-Vivo-15 Media supplemented with 1% autologous plasma, 50 ng/mL recombinant human GM-CSF (R&D, 215-GM-050) and 100 ng/mL recombinant human IL-4 (R&D, 204-IL-050) for 7 Days at 37° C./5% CO2. The cultures received a half media change at Day 3 or 4 while maintaining stimulation factor concentrations. NCI-H929 Multiple Myeloma cells were passaged for 2 passages from thaw at 37° C., 5% CO2, 90% humid air in RPMI-1640 supplemented with 10% FBS. Cells were plated at a density of 7.5×10^5 cells/ml in 2 mLs on 12 well plates. […]
FIG. 3C: IL-10 decreased with BCMA ADC treatment in supernatants from NCI-H929 Multiple Myeloma cells cultured alone. IL-10 was measured in Untreated (a), IgG Control (b), 0.1 (c), 1 (d), and 10 μg/mL BCMA ADC (e) treated (48 hours) NCI-H929 Multiple Myeloma cells.

GSK2857916 was tested, and the HMGB1 release (NCI-H929; cellular supernatant, ELISA, only in NCI-H929) was “induced”, the ATP release (NCI-H929; cellular supernatant, luminescence, only in NCI-H929, a BCMA positive MM cell line) was “induced” and the CRT exposure (NCI-H929; flow cytometry, only in NCI-H929) was “induced”. For the same substance, the overall response rate (multiple myeloma) was 60%, the “proliferation of CD4+ and CD8+ T cells” value (CD4+ and CD8+ T cells) was “does not appear to have direct effects” and the IL-10 in supernatants [1] was “decreased”.
